Measured values from patent EP3461480A1, “COMBINATION OF A DNA DAMAGE RESPONSE CELL CYCLE CHECKPOINT INHIBITORS AND BELINOSTAT FOR TREATING CANCER” (ONXEO, priority 2017, dated 2019).

Columns and labels:
Assay type in all cases: cell-based
[1] = tested on: non-tumor mammary cell line MCF-10A; experiment: XTT cell survival assay, non-tumor cells MCF-10A; details: same drug doses as MDA-MB-231, 7 days; for sensitivity of non-tumor cells: XTT survival
Description: Following drug exposure, cell survival was measured using the XTT assay (Sigma Aldrich). […] Following drug exposure, cell survival was measured using the XTT assay (Sigma Aldrich).

[2] = tested on: histiocytic lymphoma cell line U937; experiment: XTT cell survival assay and CalcuSyn combination index, U937; details: Homo sapiens, U-937, monotherapy, XTT assay, dose at which 50% of the cells are viable
Description: (§1) Cell cultures were performed with the triple negative breast cancer (TBNC) cell line MDA-MB-231, the histiocytic lymphoma cell line U937 and the non-tumor mammary cell line MCF-10A. Cells were grown according to the supplier's instructions. Cell lines were maintained at 37°C in a humidified atmosphere at 5% CO2, except the MDA-MB-231 cell line which was maintained at 0% CO2.
In a first step, the characterization of the effect of drugs monotherapy on cell survival (tumour and non-tumour cells) was performed. MDA-MB-231 (5.10^3 cells/well), MCF-10A (5.10^3 cells/well) and U937 (2.10^4 cells/well) were seeded in 96 well-plates and incubated 24 hours at +37°C before addition of the drug at increasing concentrations for 4 to 7 days. Following drug exposure, cell survival was measured using the XTT assay (Sigma Aldrich). Briefly, the XTT solution was added directly to each well containing cell culture and the cells incubated for 4 to 24 hours at 37°C before reading the absorbance at 490 nm and 690 nm using a microplate reader (BMG Fluostar, Galaxy). Cell survival is calculated as the ratio of living treated cells to living mock-treated cells. […]
In a second step, analysis and quantification of the drug combination efficacy were performed. […] Belinostat + ATRi combinations was performed at a constant ratio (from IC50/8 to IC50*8) as previously described (Chou TC, Talalay P. Adv Enzyme Regul. 1984;22:27-55 (Quantitative analysis of dose-effect relationships: the combined effects of multiple drugs or enzyme inhibitors). Cell survival was measured using the XTT assay (see above).
Combination efficacy is evaluated by "the combination index (CI)" which is determined using the CalcuSyn software tool based on the Chou Talalay method. […]
(§2) In a second step, analysis and quantification of the drug combination efficacy were performed. […] Cell survival is measured using the XTT assay (see above).
(§3) Combination efficacy is evaluated by "the combination index (CI)" which was determined using the CalcuSyn software tool based on the Chou Talalay method. […]

[3] = tested on: triple negative breast cancer (TBNC) cell line MDA-MB-231; experiment: XTT cell survival assay and CalcuSyn combination index, MDA-MB-231; details: Homo sapiens, monotherapy, XTT assay, dose at which 50% of the cells are viable
Description: as §1
In a first step, the characterization of the effect of drugs monotherapy on cell survival (tumour and non-tumour cells) was performed. MDA-MB-231 (5.10^3 cells/well), MCF-10A (5.10^3 cells/well) and U937 (2.10^4 cells/well) were seeded in 96 well-plates and incubated 24 hours at +37°C before addition of the drug at increasing concentrations for 4 to 7 days. Following drug exposure, cell survival was measured using the XTT assay (Sigma Aldrich). Briefly, the XTT solution was added directly to each well containing cell culture and the cells incubated for 4 to 24 hours at 37°C before reading the absorbance at 490 nm and 690 nm using a microplate reader (BMG Fluostar, Galaxy). Cell survival is calculated as the ratio of living treated cells to living mock-treated cells. The IC50 (which represents the dose at which 50% of the cells are viable) is calculated by a non-linear regression model using GraphPad Prism software (version 5.04) by plotting the percentage viability against the Log of the drug concentration on each cell line.
In a second step, analysis and quantification of the drug combination efficacy were performed. Cells were seeded in 96-well plates at the appropriate densities and treated with belinostat (PXD-101 - Spectrum) and/or ATR (ATRi - AZD6738, Selleckchem; VE-821, Selleckchem) simultaneously during 4 to 7days. Belinostat + ATRi combinations was performed at a constant ratio (from IC50/8 to IC50*8) as previously described (Chou TC, Talalay P. Adv Enzyme Regul. 1984;22:27-55 (Quantitative analysis of dose-effect relationships: the combined effects of multiple drugs or enzyme inhibitors). Cell survival was measured using the XTT assay (see above).
Combination efficacy is evaluated by "the combination index (CI)" which is determined using the CalcuSyn software tool based on the Chou Talalay method. A CI could be interpreted as follows: CI<1, =1, and >1 indicate synergism; additive effect and antagonism, respectively (CalculSyn manual, Biosoft, 2006). Note that we define synergism as a more than expected additive effect, and antagonism as a less than expected additive effect. […]
as §2, §3

| SMILES | sensitivity of non-tumor cells on adding belinostat ([1]; inhibitor plus belinostat) | sensitivity of non-tumor cells [1] | IC50 [2] | IC50 [3] |
| --- | --- | --- | --- | --- |
| C[C@@H]1COCCN1c1cc(C2([S@](C)(=N)=O)CC2)nc(-c2cc[nH]c3nccc2-3)n1 [AZD6738, 4-[4-[1-[[S(R)]-S-methylsulfonimidoyl]cyclopropyl]-6-[(3R)-3-methyl-4-morpholinyl]-2-pyrimidinyl]-1H-pyrrolo[2,3-b]pyridine] | didn't increase | showed a sensitivity | 500 nM | 2500 nM |
| Cc1cnc(NC(=O)Nc2cc(Br)c(C)cc2OC[C@@H]2CNCCO2)cn1 [LY2603618, 1-[5-bromo-4-methyl-2-[[(2S)-morpholin-2-yl]methoxy]phenyl]-3-(5-methylpyrazin-2-yl)urea] |  | showed a sensitivity | 1100 nM | 3200 nM |
| O=C(/C=C/c1cccc(S(=O)(=O)Nc2ccccc2)c1)NO [Belinostat, (2E)-N-hydroxy-3-[3-(phenylsulfamoyl)phenyl]prop-2-enamide] |  | insensitive | 250 nM | 250 nM |
| CS(=O)(=O)c1ccc(-c2cnc(N)c(C(=O)Nc3ccccc3)n2)cc1 [VE-821, 3-amino-6-(4-methylsulfonylphenyl)-N-phenylpyrazine-2-carboxamide] |  |  |  | 18000 nM |
